In PubChem BioAssay AID1648 (Sanford-Burnham Center for Chemical Genomics, 2009):
Active and inactive are the calls of the source. No rule for the calls is given here.

Biological target: Serine/threonine-protein kinase mTOR (Homo sapiens) (UniProt P42345)
Assay: binders of mTOR FRB domain, biophysical, NMR (AID 1648)
Conditions: NMR binding to FRB domain, chemical shift

Serine/threonine-protein kinase mTOR (Homo sapiens), sequence (P42345 2015-2114): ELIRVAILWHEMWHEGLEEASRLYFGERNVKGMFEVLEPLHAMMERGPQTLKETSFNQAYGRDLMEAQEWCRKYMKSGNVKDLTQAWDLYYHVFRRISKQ

SMILES	Kd
C[C@H]1OC(O[C@H]2[C@@H](O)CC(O[C@H]3[C@@H](O)C[C@H](O[C@H]4CC[C@]5(C)C6CC[C@]7(C)[C@@H](C8=CC(=O)OC8)[C@@H](O)C[C@]7(O)[C@@H]6CC[C@@H]5C4)O[C@@H]3C)O[C@@H]2C)C[C@H](O)C1O (stereo not given in full)	> 4 mM (inactive)
O=S1(=O)CCC(NC(=S)Nc2ccccc2)C1 (stereo not given)	> 4 mM (inactive)
CC(C)CNc1cc(=O)n(C)c(=O)n1C	> 4 mM (inactive)
CS(=O)(=O)Nc1ccccc1C(=O)c1ccccc1	> 4 mM (inactive)
CSc1nc(O)cc(=O)[nH]1	> 4 mM (inactive)
O=C(O)C1CSC(c2ccc(Cl)cc2)N1 (stereo not given)	> 4 mM (inactive)
COc1ccc2c(c1OC)OC[C@@H](c1ccc(OC)c(OC)c1OC)C2	> 4 mM (inactive)
Cc1cc(C(=O)NCc2ccco2)cs1	> 4 mM (inactive)
O=C(NC1CCS(=O)(=O)C1)c1cccs1 (stereo not given)	> 4 mM (inactive)
O=C1CC(c2ccccc2)n2ncnc2N1 (stereo not given)	> 4 mM (inactive)
c1ccc(Cc2nnc(-c3ccccc3)o2)cc1	> 4 mM (inactive)
CN1CCN(C(=O)c2cc(-c3ccccc3)on2)CC1	> 4 mM (inactive)
COC(=O)C[C@H]1C(C)(C)C(=O)[C@@H]2CC3C4=CC(=O)O[C@@H](c5ccoc5)[C@]4(C)CCC3C1(C)C2=O (stereo not given in full)	> 4 mM (inactive)
Cn1c(=O)[nH]c2nc[nH]c2c1=O	> 4 mM (inactive)
COC(=O)c1scc(S(C)(=O)=O)c1-n1cccc1	> 4 mM (inactive)
Cc1cc(=O)oc2cc3c(cc12)OCCO3	> 4 mM (inactive)
COC(=O)CC1=Nc2ccccc2NC(=O)C1	> 4 mM (inactive)
Nc1cccnc1N1CCOCC1	> 4 mM (inactive)
Cc1cc(C)nc(N(C#N)Cc2ccccc2)n1	> 4 mM (inactive)
Nc1nc2ccc(S(N)(=O)=O)cc2s1	> 4 mM (inactive)
c1ccc(-c2noc(-c3ccco3)n2)nc1	> 4 mM (inactive)
NCc1ccc(N2CCOCC2)cc1	> 4 mM (inactive)
Cc1scc(C(=O)Nc2ccon2)c1-c1ccccc1	> 4 mM (inactive)
O=C1c2cccnc2C(=O)N1Cc1ccc2c(c1)OCO2	> 4 mM (inactive)
OC1CCN(c2nccc(C(F)(F)F)n2)CC1	> 4 mM (inactive)
COC(=O)N1CCN(c2ccc(OC)cc2)CC1	> 4 mM (inactive)
S=C1NC(=S)NC(c2ccc3c(c2)OCO3)N1	> 4 mM (inactive)

SMILES	Kd
CC1=NN(C(N)=S)C(C)(C)C1	> 4 mM (inactive)
CC(=O)c1c(O)cc(O)cc1O	> 4 mM (inactive)
CC(C)=CCc1c2c(c3occ(-c4ccc(O)cc4)c(=O)c3c1O)C=CC(C)(C)O2	> 4 mM (inactive)
Cc1nnsc1C(=O)Nc1ccccc1[N+](=O)[O-]	> 4 mM (inactive)
[O-][n+]1onc2c1CCc1c-2nn(-c2ccccc2)[n+]1[O-]	> 4 mM (inactive)
NC(=O)Cn1nc(-c2ccco2)ccc1=O	> 4 mM (inactive)
C[C@@H]1CC[C@@]2(OC1)OC1C(O)C3C4CC[C@H]5C[C@H](O[C@@H]6O[C@H](CO)[C@H](O[C@@H]7O[C@H](CO)[C@@H](O)[C@H](O[C@@H]8OC[C@@H](O)[C@H](O)[C@H]8O)[C@H]7O[C@@H]7O[C@H](CO)[C@H](O)[C@H](O[C@@H]8O[C@H](CO)[C@@H](O)[C@H](O)[C@H]8O)[C@H]7O)[C@H](O)[C@H]6O)[C@H](O)C[C@]5(C)C4CC[C@]3(C)C1[C@@H]2C (stereo not given in full)	> 4 mM (inactive)
CC(C)NC(=O)c1nc2ccccc2s1	> 4 mM (inactive)
NCc1csc(-c2cccs2)n1	> 4 mM (inactive)
COC(=O)c1cc2cc(N)ccc2s1	> 4 mM (inactive)
O=C(O)c1ccccc1C(=O)Nc1ccccc1	> 4 mM (inactive)
CN(C)CCNC(CC(=O)Nc1ccccc1)C(=O)O (stereo not given)	> 4 mM (inactive)
c1ccc(SCc2nc(-c3ccccn3)no2)cc1	> 4 mM (inactive)
NCc1cccc2c1OCCCO2	> 4 mM (inactive)
COc1c2occc2cc2ccc(=O)oc12	> 4 mM (inactive)
CNC(=O)C(=O)Nc1ccc(C)c(C)c1	> 4 mM (inactive)
CCC[C@@H]1CCCCN1	> 4 mM (inactive)
Cc1ccc(C)n1/N=C1\NC(=O)CS1	> 4 mM (inactive)
COn1c(=O)c(C)[n+]([O-])c2ccccc21	> 4 mM (inactive)
Cc1ccc(N2C(=O)CCC2=O)cc1	> 4 mM (inactive)
C[C@@H]1OC(O[C@H]2C(O[C@H]3CC[C@@]4(C)C(CC[C@]5(C)C4CC=C4C6CC(C)(C)CC[C@]6(C(=O)O)CC[C@]45C)[C@]3(C)CO)OC[C@H](O)[C@@H]2O)[C@H](O)[C@H](O)[C@H]1O (stereo not given in full)	> 4 mM (inactive)
O=c1c[n+]([O-])c2ccccc2n1OCc1ccccc1	> 4 mM (inactive)
O=C1c2ccccc2C(=O)N1OCc1ccccc1	> 4 mM (inactive)
O=C(NCc1ccco1)c1cccc(F)c1	> 4 mM (inactive)
CCSc1nc2ccccc2[nH]1	> 4 mM (inactive)
O=C1CC(=O)N2N=C(c3ccccc3)SC2=N1	> 4 mM (inactive)
COc1ccccc1-c1cn[nH]c(=S)n1	> 4 mM (inactive)

SMILES	Kd
CNc1nc(N)c(C(=O)C(C)(C)C)s1	> 4 mM (inactive)
Cc1nnc(SCC(=O)N2CCc3ccccc32)s1	> 4 mM (inactive)
Cc1nnc(SCC(=O)NCc2ccccc2)[nH]c1=O	> 4 mM (inactive)
O=C(O)c1ccc(CSc2ncn[nH]2)cc1	> 4 mM (inactive)
Cc1nnc(NCCCO)[nH]c1=O	> 4 mM (inactive)
COC(=O)C[C@@H]1C2(C)C(=O)[C@@H](CC3=C4CC(=O)O[C@@H](c5ccoc5)[C@]4(C)CCC32)[C@H](OC(C)=O)C1(C)C (stereo not given in full)	> 4 mM (inactive)
COc1cc(N)ccc1NC(=O)c1cccs1	> 4 mM (inactive)
Cc1ccn(S(=O)(=O)c2ccc(F)cc2)n1	> 4 mM (inactive)
O=C1N=c2ccccc2=C1c1[nH]c(=S)[nH]c1O	> 4 mM (inactive)
COC(=O)c1sc(N)nc1C	> 4 mM (inactive)
Cc1cc(NC(=O)CSc2ccnc(=O)[nH]2)no1	> 4 mM (inactive)
CCc1cccc(C)c1NC(=O)c1cc(C)oc1C	> 4 mM (inactive)
NC(=O)CC1NC(=O)c2ccccc21 (stereo not given)	> 4 mM (inactive)
CC(=O)Nc1ccc(S(=O)(=O)Nc2cc(C)on2)cc1	> 4 mM (inactive)
Cn1c(O)c(C=NCC2CCNCC2)c(=O)n(C)c1=O	> 4 mM (inactive)
CCOC(=O)CNC(=O)CSc1nnc(C)c(=O)[nH]1	> 4 mM (inactive)
OCC1Cc2ccccc2CN1 (stereo not given)	> 4 mM (inactive)
O=C(CC1SC(=O)NC1=O)Nc1nccs1 (stereo not given)	> 4 mM (inactive)
O=C(O)Cn1nnn(-c2ccccc2)c1=S	> 4 mM (inactive)
COc1ccc(C(N)=O)cc1N	> 4 mM (inactive)
Cc1c(C)[n+](=O)c(-c2cccs2)c(C)n1[O-]	> 4 mM (inactive)
Cc1ccc(C)c(C(=O)NCc2ccncc2)c1	> 4 mM (inactive)
CCc1noc(C)c1C(=O)N1CCOCC1	> 4 mM (inactive)
CN1C(=O)c2ccc(N3CCCC3)cc2C1=O	> 4 mM (inactive)
Cc1noc(C)c1C(=O)Nc1ccccc1-c1ccccc1	> 4 mM (inactive)
Cc1ccc(S(=O)(=O)/N=C2\NC(=O)CS2)cc1	> 4 mM (inactive)
